Results as given in PubChem BioAssay AID2060494 (Molecular Pharmacology Branch, DTP, NCI, 2025).
“And” between values parts separate entries of the source, which are not always exact repeats. Equal values may be shown once.

System: 435261-313-R-J1-PDC complex spheroid viability
Assay: Anticancer human tumor 435261-313-R-J1-PDC patient-derived colon adenocarcinoma cell line growth inhibition [GQUAD]
Settings: for viability, T/C: stronger effect = lower value
Excerpt: DNA G-quadruplex Stabilizer Agents in Combinations in Complex Spheroids
A high-throughput screen of multi-cell type tumor spheroids was designed to identify active combinations of DNA G-quadruplex stabilizer agents and targeted small molecules. Complex spheroids include a stromal component modeled by human endothelial cells (HUVEC) and fibroblasts modeled by human mesenchymal stem cells (MSCs). The concentration ranges selected for each drug and investigational agent were based upon clinically achievable concentrations if the clinical Cmax of the agent was known.
Compounds. The drugs and investigational agents: pidnarulex (CX-5461; NSC782164), APTO-253 (NSC789042), BRACO-19 (NSC847499), peposertib (NSC802822), ceralasertib (NSC780249), elimusertib (NSC800525), camonsertib (NSC841442), AZD-1390 (NSC803789), olaparib (NSC753686), talazoparib (NSC767125), ART-558 (NSC835418), sotorasib (NSC818433), MRTX-1133 (NSC836407), SN-38 (NSC673596), topotecan (NSC609699), etoposide (NSC141540), doxorubicin (NSC123127), gemcitabine (NSC613327), 5-fluorouracil (NSC19893), paclitaxel (NSC125973), vemurafenib (NSC761431), panobinostat (NSC761190), R-306465 (JNJ-16241199; NSC773264), adavosertib (NSC754352), TP-3654 (NSC805149), carboplatin (NSC241240), KSQ-4279 (NSC840948), and staurosporine (NSC755774) were obtained from the National Cancer Institute (NCI) Developmental Therapeutics Program Chemical Repository (34). The FDA-approved anticancer drug set is available from the NCI Developmental Therapeutics Program. […] The stock solutions were prepared in dimethyl sulfoxide (DMSO, Sigma-Aldrich, St. Louis, MO, cat. D2650) at 800-fold the tested concentration and stored at -70 degrees C prior to their use. All drugs and investigational agents were tested over a range starting from a high concentration at or near the clinical Cmax and decreasing in half-log increments. If the clinical Cmax for an agent had not been determined, the highest concentration tested was 10 microM.
2.3 Cell Culture. All cells were maintained in an incubator at 37 degrees C and 5% CO2 with 95% humidity. The PDC lines were cultured according to standard operating procedures established by the NCI PDMR. All PDCs were thawed and cultured in Matrigel-coated flasks prepared with a working solution of 1X Ham's F-12 nutrient mix, without supplementation (Invitrogen, cat. 11765054), 100 U/mL penicillin-streptomycin (Invitrogen, cat. 15140122), and 2.5% Matrigel (Corning Inc., cat. 354248) for the first three passages. The 857933-349-R-J2-PDC line was cultured in 6C/Colon 1B media, which includes advanced DMEM/F-12 (Thermo Fisher Scientific, cat. 12634028), 10 mM HEPES (Thermo Fisher Scientific, cat. 15630080), 1X GlutaMAX supplement (Thermo Fisher Scientific, cat. 35050061), 0.1 mg/mL primocin (InvivoGen, cat. ant-pm-2), 10% defined fetal bovine serum, heat inactivated (HyClone Laboratories Inc., cat. SH30070.03HI), 50% L-WRN conditioned media (ATCC, cat. CRL-3276), 1.25 mM N-Acetyl-L-cysteine (Sigma-Aldrich, cat. A9165), 10 mM nicotinamide (Sigma-Aldrich, cat. N0636), 1X B-27 supplement (Thermo Fisher Scientific, cat. 17504044), 1X N-2 supplement (Thermo Fisher Scientific, cat. 17502048), 10 microM Y-27632 dihydrochloride (Tocris Bioscience, cat. 1254), and 50 ng/mL human EGF recombinant protein (Thermo Fisher Scientific, cat. PHG0311). The 485176-168-R4-J1-PDC line was cultured in Panc media, which includes all 6C/Colon 1B media components plus 100 ng/mL human FGF-10 (Thermo Fisher Scientific, cat. 100-26), 500 nM SB-431542 (Selleckchem, cat. S1067), and gastrin (Tocris, cat. 3006).
[…]
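Note: spheroids exposed to the agents for seven days before readout.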
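Throughout, for viability, T/C: percent of vehicle control viability with DMSO wells as 100%.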

| Compound | IC50 (curve of compound) | IC50 (compound alone, run of 02/20/2024) | IC50 (compound alone, run of 02/26/2024) | viability, T/C (compound 0.0316 µM) | viability, T/C (compound 0.1 µM) | viability, T/C (compound 0.316 µM) | viability, T/C (compound 1 µM) | viability, T/C (compound 3.16 µM) | viability, T/C (compound 10 µM) | viability, T/C (compound 0.000999 µM) | viability, T/C (compound 0.00316 µM) | viability, T/C (compound 0.00999 µM) | viability, T/C (compound 0.0999 µM) |
| --- | --- | --- | --- | --- | --- | --- | --- | --- | --- | --- | --- | --- | --- |
| COc1cc(C2c3cc4c(cc3C(OC3OC5COC(C)OC5C(O)C3O)C3COC(=O)C23)OCO4)cc(OC)c1O (stereo not drawn) | > 10000 nM | – | – | 118% and 96.2% | 67.4% and 93.6% | 83.6% and 91.3% | 56.6% and 80.2% | 62.7% and 78.5% | 52.2% and 61.6% | – | – | – | – |
| COc1ccc([C@@H](O)c2cc(-c3ncnc4cc(N5CCOCC5)ccc34)c(F)cc2Cl)nn1 | 1930 nM and 2610 nM and 976 nM | – | – | 105% and 99% and 90.9% | 69.6% and 82.1% and 74.6% | 81.5% and 103% and 90.2% | 62.6% and 71.3% and 49.3% | 38.6% and 47.8% and 37.7% | 30.6% and 31.7% and 25.6% | – | – | – | – |
| COc1cccc2c1C(=O)c1c(O)c3c(c(O)c1C2=O)CC(O)(C(=O)CO)CC3OC1CC(N)C(O)C(C)O1 (stereo not drawn) | 656 nM and 293 nM | – | – | 94.1% and 85% | 67.5% and 76.3% | 74.4% and 44% | 37% and 26.8% | 2.3% and 1.87% | 4.42% and 1.38% | – | – | – | – |
| Cc1[nH]c2ccc(F)cc2c1-c1nc2c3cccnc3c3ncccc3c2[nH]1 | – | 1.81 µM [middle of 4 runs] | 1110 nM and 949 nM and 3310 nM | 99.6% [middle of 8 runs] | – | – | – | 30.2% [middle of 8 runs] | 24.5% [middle of 8 runs] | – | – | – | – |
| Cc1cccc(N(C)C(=O)C2C(O)CCN2c2nc(C)cc(C(F)(F)F)c2C#N)c1 (stereo not drawn) | > 10000 nM | – | – | 102% and 105% and 116% | 94.8% and 106% and 102% | 138% and 103% and 89.8% | 106% and 93.5% and 114% | 100% and 89.1% and 85.5% | 122% and 94.3% and 84% | – | – | – | – |
| Cc1cnc(CNC(=O)c2c(=O)c3ccc(N4CCCN(C)CC4)nc3n3c2sc2ccccc23)cn1 | – | – | – | 74.8% [middle of 10 runs] | 64.1% [middle of 10 runs] | 57.7% [middle of 10 runs] | 46.2% [middle of 10 runs] | 9.54% [middle of 10 runs] | 0.19% [middle of 7 runs] | – | – | – | – |
| Cn1ncnc1[C@H]1c2n[nH]c(=O)c3cc(F)cc(c23)N[C@@H]1c1ccc(F)cc1 | > 316 nM | – | – | 71.5% and 116% and 74.2% | – | 81.1% and 72% and 81.4% | – | – | – | 129% and 93.2% and 109% | 91% and 87% and 106% | 114% and 98% and 124% | 101% and 65.9% and 81.1% |
| O=C(NO)c1cnc(N2CCN(S(=O)(=O)c3ccc4ccccc4c3)CC2)nc1 | 318 nM | – | – | 97.4% | 68.3% | 52.4% | 35.2% | 0.38% | 0.16% | – | – | – | – |
| O=C(c1cc(Cc2n[nH]c(=O)c3ccccc23)ccc1F)N1CCN(C(=O)C2CC2)CC1 | > 10000 nM | – | – | 104% and 96% | 101% and 90.4% | 80.2% and 95.2% | 98.7% and 88.8% | 82.4% and 119% | 71.2% and 80.3% | – | – | – | – |

Now from value to molecule, other results behind:

| IC50 (curve of compound) | IC50 (compound alone, run of 02/20/2024) | IC50 (compound alone, run of 02/26/2024) | Compound | viability, T/C (compound 0.0316 µM) | viability, T/C (compound 0.1 µM) | viability, T/C (compound 0.316 µM) | viability, T/C (compound 1 µM) | viability, T/C (compound 3.16 µM) | viability, T/C (compound 10 µM) | viability, T/C (compound 0.000999 µM) | viability, T/C (compound 0.00316 µM) | viability, T/C (compound 0.00999 µM) | viability, T/C (compound 0.0999 µM) |
| --- | --- | --- | --- | --- | --- | --- | --- | --- | --- | --- | --- | --- | --- |
| > 10000 nM | – | – | COc1ncnc(C2CC2)c1-c1ncc2cnn(Cc3ccc(-c4nc(C(F)(F)F)cn4C(C)C)cc3)c2n1 | 89.1% and 87.3% | 75.2% and 70.5% | 85.4% and 92.4% | 113% and 83% | 96.8% and 88.3% | 84.5% and 65.8% | – | – | – | – |
| 69 nM and 100 nM | – | – | Cc1[nH]c2ccccc2c1CCNCc1ccc(/C=C/C(=O)NO)cc1 | 78.2% and 87.4% | – | 7.05% and 6.56% | – | – | – | 95.4% and 104% | 69.8% and 120% | 57.5% and 73.5% | 38% and 48.4% |
| > 10000 nM | – | – | Nc1ccn(C2OC(CO)C(O)C2(F)F)c(=O)n1 (stereo not drawn) | 54.8% and 88.1% and 71.3% | 48.5% and 89.5% and 58.6% | 54.9% and 84.8% and 61.3% | 51.8% and 98.2% and 50.4% | 58.7% and 76.3% and 69.7% | 51.3% and 66.3% and 51.9% | – | – | – | – |
| > 10000 nM | – | – | O=c1[nH]cc(F)c(=O)[nH]1 | 88.6% and 164% and 121% | 71.2% and 82.5% and 101% | 83% and 89.5% and 119% | 61.4% and 63.8% and 109% | 63.2% and 95% and 99.5% | 63.7% and 75% and 70.3% | – | – | – | – |
